Toxic doses and inconclusive results are not listed.
Tested on: P388 leukemia ip, CD2F1 mice, survival T/C
Test: NCI In Vivo Anticancer Drug Screen. Data for tumor model P388 Leukemia (intraperitoneal) in CD2F1 (CDF1) mice
Conditions: endpoint: median survival time, higher = longer survival
Procedure, shortened: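 Mice carrying the transplanted tumor received test compound or vehicle. Survival was recorded in each group, and the value is the treated-group measurement divided by that of the vehicle-treated control group.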

[1] = dose: 50.0 mg/kg/injection, schedule: Q01DX005 (ip), vehicle: Klucel (hydroxypropylcellulose) (HPC)
[2] = dose: 100.0 mg/kg/injection, schedule: Q01DX005 (ip), vehicle: Klucel (hydroxypropylcellulose) (HPC)
[3] = dose: 200.0 mg/kg/injection, schedule: Q01DX005 (ip), vehicle: Klucel (hydroxypropylcellulose) (HPC)

CC(=O)OC1C(C)OC(OC2C(OC(=O)C3CCC4C(C3)OC3(CC(OC(=O)/C=C/c5ccccc5)C(C)CO3)C43CO3)OC(C)C(OC(C)=O)C2OC(C)=O)C(OC(C)=O)C1OC(C)=O (centres undefined)
T/C (dose: 3.0 mg/kg/injection, schedule: Q01DX005 (ip), vehicle: saline): 100 % of control
T/C (dose: 3.75 mg/kg/injection, schedule: Q01DX009 (ip), vehicle: saline + alcohol): 100 % of control
T/C (dose: 6.0 mg/kg/injection, schedule: Q01DX005 (ip), vehicle: saline): 106 % of control
T/C (dose: 7.5 mg/kg/injection, schedule: Q01DX009 (ip), vehicle: saline + alcohol): 98 % of control
T/C (dose: 12.0 mg/kg/injection, schedule: Q01DX005 (ip), vehicle: saline): 99 % of control
T/C (dose: 15.0 mg/kg/injection, schedule: Q01DX009 (ip), vehicle: saline + alcohol): 102 % of control
T/C (dose: 24.0 mg/kg/injection, schedule: Q01DX005 (ip), vehicle: saline): 106 % of control
T/C (dose: 30.0 mg/kg/injection, schedule: Q01DX009 (ip), vehicle: saline + alcohol): 104 % of control

O=c1oc(-c2cccc(C(Cl)Cl)c2)ns1
T/C (dose: 100.0 mg/kg/injection, schedule: Q01DX009 (ip), vehicle: Klucel (hydroxypropylcellulose) (HPC)): 112 % of control
T/C (dose: 200.0 mg/kg/injection, schedule: Q01DX009 (ip), vehicle: Klucel (hydroxypropylcellulose) (HPC)): 107 % of control
T/C (dose: 400.0 mg/kg/injection, schedule: Q01DX009 (ip), vehicle: Klucel (hydroxypropylcellulose) (HPC)): 105 % of control

Cc1[nH]nc2c1NC(=O)OC2C (centres undefined)
T/C (dose: 50.0 mg/kg/injection, schedule: Q01DX005 (ip), vehicle: saline with Tween-80): 108 % of control
T/C (dose: 100.0 mg/kg/injection, schedule: Q01DX005 (ip), vehicle: saline with Tween-80): 99 % of control
T/C (dose: 200.0 mg/kg/injection, schedule: Q01DX005 (ip), vehicle: saline with Tween-80): 101 % of control

CN(C(=O)c1ccccc1)C1CCCC(=O)CC1 (centres undefined)
T/C (dose: 25.0 mg/kg/injection, schedule: Q01DX005 (ip), vehicle: Klucel (hydroxypropylcellulose) (HPC)): 105 % of control
T/C [1]: 100 % of control
T/C [2]: 99 % of control
T/C [3]: 97 % of control

COc1cccc2c1C(=O)c1c(O)c3c(c(O)c1C2=O)C[C@@](O)(C(=O)CO)C[C@@H]3OC1CC(NC(C)=O)C(O)C(C)O1 (some centres undefined)
T/C (dose: 0.2 mg/kg/injection, schedule: Q01DX009 (ip), vehicle: water): 96 % of control
T/C (dose: 0.39 mg/kg/injection, schedule: Q01DX009 (ip), vehicle: water): 107 % of control
T/C (dose: 0.78 mg/kg/injection, schedule: Q01DX009 (ip), vehicle: water): 116 % of control
T/C (dose: 1.56 mg/kg/injection, schedule: Q01DX009 (ip), vehicle: water): 122 % of control
T/C (dose: 3.13 mg/kg/injection, schedule: Q01DX009 (ip), vehicle: water): 120 % of control
T/C (dose: 25.0 mg/kg/injection, schedule: Q01DX009 (ip), vehicle: other): 156 % of control
T/C (dose: 50.0 mg/kg/injection, schedule: Q01DX009 (ip), vehicle: other): 195 % of control
T/C (dose: 50.0 mg/kg/injection, schedule: Q01DX009 (ip), vehicle: water): 172 % of control
T/C (dose: 100.0 mg/kg/injection, schedule: Q01DX009 (ip), vehicle: other): 201 % of control
T/C (dose: 200.0 mg/kg/injection, schedule: Q01DX009 (ip), vehicle: other): 192 % of control

O=C1/C(=C/c2ccc3c(c2)OCO3)C2CCC(N2)/C1=C\c1ccc2c(c1)OCO2
T/C (dose: 50.0 mg/kg/injection, schedule: Q01DX001 (ip), vehicle: Klucel (hydroxypropylcellulose) (HPC)): 103 % of control
T/C (dose: 100.0 mg/kg/injection, schedule: Q01DX001 (ip), vehicle: Klucel (hydroxypropylcellulose) (HPC)): 96 % of control
T/C (dose: 200.0 mg/kg/injection, schedule: Q01DX001 (ip), vehicle: Klucel (hydroxypropylcellulose) (HPC)): 96 % of control

Cc1ccc(S(=O)(=O)NCCSSCCNS(=O)(=O)c2ccc(C)cc2)cc1
T/C [1]: 103 % of control
T/C [2]: 106 % of control
T/C [3]: 103 % of control

From PubChem BioAssay AID330 (DTP/NCI, 2004)
